PubChem BioAssay (NCI)
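Growth conditions: 96-well plates. Treatment: test compound, 48 hours, 5 concentrations. Analysis: linear interpolation between bracketing concentrations; unreached endpoints set to highest concentration. TGI: total growth inhibition.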

Assays:
Experiment in all cases: NCI anticancer screen, dose series, 48 h
[1] = system: A549 NSCLC
[2] = system: MDA-N
[3] = system: NCI-H226 lung
[4] = system: EKVX NSCLC
[5] = system: SK-MEL-5 melanoma
[6] = system: RPMI-8226 leukemia
[7] = system: SF-295 CNS
[8] = system: ACHN renal
[9] = system: HCT-15 colon
[10] = system: HT29 colon
[11] = system: SK-MEL-28 melanoma
[12] = system: IGROV1 ovarian
[13] = system: M14 melanoma
[14] = system: SN12C renal
[15] = system: T-47D breast
[16] = system: NCI-H23 lung
[17] = system: KM12 colon
[18] = system: RXF 393 renal
[19] = system: SK-MEL-2 melanoma
[20] = system: SW-620 colon
[21] = system: OVCAR-5 ovarian
[22] = system: TK-10 renal
[23] = system: NCI-H522 lung
[24] = system: U251 CNS
[25] = system: SR leukemia
[26] = system: SNB-75 CNS
[27] = system: A498 renal
[28] = system: NCI/ADR-RES ovarian
[29] = system: HCT-116 colon
[30] = system: LOX IMVI melanoma
[31] = system: HS 578T breast
[32] = system: UACC-62 melanoma
[33] = system: PC-3 prostate
[34] = system: UO-31 renal
[35] = system: NCI-H460 lung
[36] = system: OVCAR-8 ovarian
[37] = system: HOP-62 NSCLC
[38] = system: 786-0 renal
[39] = system: BT-549 breast
[40] = system: SF-539 CNS
[41] = system: DU-145 prostate
[42] = system: MDA-MB-231 breast
[43] = system: MOLT-4 leukemia
[44] = system: COLO 205 colon
[45] = system: HOP-92 NSCLC
[46] = system: MCF7 breast
[47] = system: MDA-MB-435
[48] = system: UACC-257 melanoma
[49] = system: SNB-19 CNS
[50] = system: CAKI-1 renal
[51] = system: HL-60(TB) leukemia
[52] = system: OVCAR-4 ovarian
[53] = system: SF-268 CNS
[54] = system: K-562 leukemia
[55] = system: OVCAR-3 ovarian
[56] = system: SK-OV-3 ovarian
[57] = system: HCC-2998 colon
[58] = system: CCRF-CEM leukemia
[59] = system: MALME-3M melanoma

SMILES: CN1CCN(CCCNN)CC1
- TGI [1]: > 100 µM
- TGI [2]: > 100 µM
- TGI [3]: > 100 µM
- TGI [4]: > 100 µM
- TGI [5]: > 100 µM
- TGI [6]: > 100 µM
- TGI [7]: > 100 µM
- TGI [8]: > 100 µM
- TGI [9]: > 100 µM
- TGI [10]: > 100 µM
- TGI [11]: > 100 µM
- TGI [12]: > 100 µM
- TGI [13]: > 100 µM
- TGI [14]: > 100 µM
- TGI [15]: > 100 µM
- TGI [16]: > 100 µM
- TGI [17]: > 100 µM
- TGI [18]: > 100 µM
- TGI [19]: > 100 µM
- TGI [20]: > 100 µM
- TGI [21]: > 100 µM
- TGI [22]: > 100 µM
- TGI [23]: > 100 µM
- TGI [24]: > 100 µM
- TGI [25]: > 100 µM
- TGI [26]: > 100 µM
- TGI [27]: > 100 µM
- TGI [28]: > 100 µM
- TGI [29]: > 100 µM
- TGI [30]: > 100 µM
- TGI [31]: > 100 µM
- TGI [32]: > 100 µM
- TGI [33]: > 100 µM
- TGI [34]: > 100 µM
- TGI [35]: > 100 µM
- TGI [36]: > 100 µM
- TGI [37]: > 100 µM
- TGI [38]: > 100 µM
- TGI [39]: > 100 µM
- TGI [40]: > 100 µM
- TGI [41]: > 100 µM
- TGI [42]: > 100 µM
- TGI [43]: 1.44 µM
- TGI [44]: > 100 µM
- TGI [45]: > 100 µM
- TGI [46]: > 100 µM
- TGI [47]: > 100 µM
- TGI [48]: > 100 µM
- TGI [49]: > 100 µM
- TGI [50]: > 100 µM
- TGI [51]: > 100 µM
- TGI [52]: > 100 µM
- TGI [53]: > 100 µM
- TGI [54]: 37.5 µM
- TGI [55]: > 100 µM
- TGI [56]: > 100 µM
- TGI [57]: > 100 µM

SMILES: O=C(O)Cc1cc(F)ccc1C(=O)O
- TGI [1]: > 100 µM
- TGI [2]: > 100 µM
- TGI [4]: > 100 µM
- TGI [5]: > 100 µM
- TGI [6]: > 100 µM
- TGI [7]: > 100 µM
- TGI [58]: > 100 µM
- TGI [8]: > 100 µM
- TGI [9]: > 100 µM
- TGI [10]: > 100 µM
- TGI [11]: > 100 µM
- TGI [12]: 75.9 µM
- TGI [13]: > 100 µM
- TGI [14]: > 100 µM
- TGI [15]: > 100 µM
- TGI [16]: > 100 µM
- TGI [17]: > 100 µM
- TGI [18]: > 100 µM
- TGI [19]: > 100 µM
- TGI [20]: > 100 µM
- TGI [21]: > 100 µM
- TGI [22]: > 100 µM
- TGI [23]: > 100 µM
- TGI [24]: > 100 µM
- TGI [25]: > 100 µM
- TGI [26]: > 100 µM
- TGI [27]: > 100 µM
- TGI [28]: > 100 µM
- TGI [29]: > 100 µM
- TGI [30]: > 100 µM
- TGI [31]: > 100 µM
- TGI [32]: > 100 µM
- TGI [33]: > 100 µM
- TGI [34]: > 100 µM
- TGI [35]: > 100 µM
- TGI [36]: > 100 µM
- TGI [37]: > 100 µM
- TGI [38]: > 100 µM
- TGI [39]: > 100 µM
- TGI [40]: > 100 µM
- TGI [41]: > 100 µM
- TGI [42]: > 100 µM
- TGI [43]: > 100 µM
- TGI [44]: > 100 µM
- TGI [45]: > 100 µM
- TGI [46]: > 100 µM
- TGI [47]: > 100 µM
- TGI [48]: > 100 µM
- TGI [49]: > 100 µM
- TGI [50]: > 100 µM
- TGI [51]: > 100 µM
- TGI [53]: > 100 µM
- TGI [54]: > 100 µM
- TGI [55]: > 100 µM
- TGI [56]: > 100 µM
- TGI [57]: > 100 µM

SMILES: Clc1ccc(-c2nc3ccc(Cl)cc3[nH]2)cc1
- TGI [1]: > 100 µM
- TGI [2]: 85.2 µM
- TGI [3]: > 100 µM
- TGI [4]: > 100 µM
- TGI [59]: > 100 µM
- TGI [5]: > 100 µM
- TGI [6]: 79.1 µM
- TGI [7]: 74.9 µM
- TGI [58]: > 100 µM
- TGI [8]: > 100 µM
- TGI [9]: > 100 µM
- TGI [10]: > 100 µM
- TGI [11]: > 100 µM
- TGI [12]: > 100 µM
- TGI [13]: > 100 µM
- TGI [14]: 86.6 µM
- TGI [15]: > 100 µM
- TGI [16]: 90.3 µM
- TGI [17]: 98.1 µM
- TGI [18]: > 100 µM
- TGI [19]: 67.4 µM
- TGI [20]: > 100 µM
- TGI [22]: > 100 µM
- TGI [23]: 80.1 µM
- TGI [24]: > 100 µM
- TGI [25]: > 100 µM
- TGI [26]: > 100 µM
- TGI [28]: 56.1 µM
- TGI [29]: 53.3 µM
- TGI [30]: 69.5 µM
- TGI [31]: > 100 µM
- TGI [32]: > 100 µM
- TGI [33]: 77.5 µM
- TGI [34]: 79.3 µM
- TGI [35]: 98.4 µM
- TGI [36]: > 100 µM
- TGI [37]: > 100 µM
- TGI [38]: > 100 µM
- TGI [39]: > 100 µM
- TGI [40]: > 100 µM
- TGI [41]: > 100 µM
- TGI [42]: > 100 µM
- TGI [43]: > 100 µM
- TGI [44]: 34.9 µM
- TGI [45]: 75.1 µM
- TGI [46]: > 100 µM
- TGI [47]: 84.5 µM
- TGI [48]: > 100 µM
- TGI [49]: > 100 µM
- TGI [50]: > 100 µM
- TGI [51]: > 100 µM
- TGI [52]: > 100 µM
- TGI [53]: > 100 µM
- TGI [54]: > 100 µM
- TGI [55]: 96.5 µM
- TGI [56]: > 100 µM
- TGI [57]: 89.1 µM
